ChEMBL document CHEMBL4627279, “Discovery and structure-activity relationships of spiroindolines as novel inducers of oligodendrocyte progenitor cell differentiation” (Bioorg Med Chem, 2020)
Active and inactive are the calls of the source. The calls are words filed in the database; no cut-off is given here.

Assays:
[1] = cells; settings: Rattus norvegicus
Description: Induction of rat oligodendrocyte precursor cells differentiation assessed as myelin basic protein expression by immunostaining based assay

[2] = molecular target: CYP2D6 (Homo sapiens, UniProt P10635); assay: Inhibition of CYP2D6 in human liver microsomes at 10 uM; assay type: ADME
Chain of CYP2D6 (P10635 whole entry): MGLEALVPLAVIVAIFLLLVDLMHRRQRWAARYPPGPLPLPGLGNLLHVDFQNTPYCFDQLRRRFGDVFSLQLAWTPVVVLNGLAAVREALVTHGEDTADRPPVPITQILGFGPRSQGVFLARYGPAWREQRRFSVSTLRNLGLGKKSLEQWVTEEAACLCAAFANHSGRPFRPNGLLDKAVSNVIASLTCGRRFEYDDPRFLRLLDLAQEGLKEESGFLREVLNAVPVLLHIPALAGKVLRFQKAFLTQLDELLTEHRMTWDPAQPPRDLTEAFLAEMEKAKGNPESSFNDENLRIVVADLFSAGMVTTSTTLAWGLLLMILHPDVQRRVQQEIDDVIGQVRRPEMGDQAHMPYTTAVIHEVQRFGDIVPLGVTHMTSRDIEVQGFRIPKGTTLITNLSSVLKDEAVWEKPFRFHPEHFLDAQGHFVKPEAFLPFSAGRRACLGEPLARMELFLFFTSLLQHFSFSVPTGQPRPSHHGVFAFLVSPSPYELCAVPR

[3] = molecular target: Cytochrome P450 2C9 (Homo sapiens, UniProt P11712); assay: Inhibition of CYP2C9 in human liver microsomes; assay type: ADME
Chain of Cytochrome P450 2C9 (P11712 whole entry): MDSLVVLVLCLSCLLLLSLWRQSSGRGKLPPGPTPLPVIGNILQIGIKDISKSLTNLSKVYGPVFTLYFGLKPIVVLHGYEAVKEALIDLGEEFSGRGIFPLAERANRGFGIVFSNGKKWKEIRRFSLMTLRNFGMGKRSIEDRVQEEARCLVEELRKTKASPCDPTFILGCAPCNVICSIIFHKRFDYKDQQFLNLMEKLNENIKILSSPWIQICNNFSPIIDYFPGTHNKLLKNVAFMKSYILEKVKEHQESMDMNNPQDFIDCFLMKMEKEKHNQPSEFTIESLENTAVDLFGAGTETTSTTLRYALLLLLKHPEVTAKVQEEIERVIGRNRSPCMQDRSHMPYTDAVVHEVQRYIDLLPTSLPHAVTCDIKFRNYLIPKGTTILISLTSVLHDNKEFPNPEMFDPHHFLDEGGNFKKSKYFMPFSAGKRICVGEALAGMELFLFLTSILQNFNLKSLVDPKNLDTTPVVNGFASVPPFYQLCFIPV

[4] = Plasma clearance in C57BL/6 mouse at 1 mg/kg, iv administered as a single dose; assay type: ADME, organism-based
[5] = cells; settings: Rattus norvegicus; remark: listed apart in the source
Description: Induction of rat oligodendrocyte precursor cells differentiation assessed as myelin basic protein expression by immunostaining based assay relative to control

[6] = Cmax in C57BL/6 mouse at 10 mg/kg, po administered as a single dose; assay type: ADME, organism-based; design: dose 10 mg/kg, route oral; settings: in vivo
[7] = molecular target: hERG (KCNH2) (Homo sapiens, UniProt Q12809); assay: in vitro
Chain of hERG (KCNH2) (Q12809 whole entry): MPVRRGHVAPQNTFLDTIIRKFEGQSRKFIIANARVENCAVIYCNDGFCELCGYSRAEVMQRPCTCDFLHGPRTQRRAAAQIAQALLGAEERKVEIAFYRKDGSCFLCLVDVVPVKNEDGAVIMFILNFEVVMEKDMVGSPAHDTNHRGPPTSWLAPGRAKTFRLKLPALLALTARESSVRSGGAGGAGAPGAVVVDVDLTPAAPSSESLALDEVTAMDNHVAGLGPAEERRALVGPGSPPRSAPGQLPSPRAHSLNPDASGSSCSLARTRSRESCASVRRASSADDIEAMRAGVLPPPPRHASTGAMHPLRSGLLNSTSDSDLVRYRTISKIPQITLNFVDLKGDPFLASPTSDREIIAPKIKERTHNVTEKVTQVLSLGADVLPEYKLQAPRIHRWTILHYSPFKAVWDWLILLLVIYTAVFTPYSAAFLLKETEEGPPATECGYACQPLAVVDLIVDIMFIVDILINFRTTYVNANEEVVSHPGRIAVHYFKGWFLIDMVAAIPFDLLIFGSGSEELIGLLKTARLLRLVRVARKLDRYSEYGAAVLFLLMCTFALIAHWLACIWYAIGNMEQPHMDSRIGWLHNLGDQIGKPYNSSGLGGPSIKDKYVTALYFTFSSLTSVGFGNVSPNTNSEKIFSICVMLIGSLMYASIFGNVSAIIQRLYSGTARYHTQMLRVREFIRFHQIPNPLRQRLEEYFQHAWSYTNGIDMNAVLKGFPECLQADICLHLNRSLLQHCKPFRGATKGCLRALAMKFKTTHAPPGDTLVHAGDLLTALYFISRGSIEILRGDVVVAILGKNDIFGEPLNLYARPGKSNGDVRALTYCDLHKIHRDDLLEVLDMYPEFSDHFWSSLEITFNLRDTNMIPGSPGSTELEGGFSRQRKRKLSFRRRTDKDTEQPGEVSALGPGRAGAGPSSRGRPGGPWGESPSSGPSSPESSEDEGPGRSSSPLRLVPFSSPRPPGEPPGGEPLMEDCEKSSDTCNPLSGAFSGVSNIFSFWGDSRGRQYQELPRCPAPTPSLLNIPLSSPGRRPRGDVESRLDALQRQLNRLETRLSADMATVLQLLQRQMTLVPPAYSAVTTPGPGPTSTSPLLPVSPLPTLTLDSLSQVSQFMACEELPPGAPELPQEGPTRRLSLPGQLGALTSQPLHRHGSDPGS
Description: Inhibition of human ERG at 10 uM

[8] = physchem; settings: buffer, pH 7.4
Description: Lipophilicity, log D of the compound at pH 7.4

[9] = Volume of distribution in C57BL/6 mouse at 1 mg/kg, iv administered as a single dose; assay type: ADME, organism-based; settings: in vivo
[10] = AUClast in C57BL/6 mouse at 10 mg/kg, po administered as a single dose; assay type: ADME, organism-based; design: dose 10 mg/kg, route oral, time 0 - last; settings: in vivo
[11] = Brain to plasma permeability coefficient, Kp of the compound in C57BL/6 mouse after 4 hrs; assay type: ADME
[12] = molecular target: Cytochrome P450 3A4 (Homo sapiens, UniProt P08684); assay: Inhibition of CYP3A4 in human liver microsomes; assay type: ADME
Chain of Cytochrome P450 3A4 (P08684 whole entry): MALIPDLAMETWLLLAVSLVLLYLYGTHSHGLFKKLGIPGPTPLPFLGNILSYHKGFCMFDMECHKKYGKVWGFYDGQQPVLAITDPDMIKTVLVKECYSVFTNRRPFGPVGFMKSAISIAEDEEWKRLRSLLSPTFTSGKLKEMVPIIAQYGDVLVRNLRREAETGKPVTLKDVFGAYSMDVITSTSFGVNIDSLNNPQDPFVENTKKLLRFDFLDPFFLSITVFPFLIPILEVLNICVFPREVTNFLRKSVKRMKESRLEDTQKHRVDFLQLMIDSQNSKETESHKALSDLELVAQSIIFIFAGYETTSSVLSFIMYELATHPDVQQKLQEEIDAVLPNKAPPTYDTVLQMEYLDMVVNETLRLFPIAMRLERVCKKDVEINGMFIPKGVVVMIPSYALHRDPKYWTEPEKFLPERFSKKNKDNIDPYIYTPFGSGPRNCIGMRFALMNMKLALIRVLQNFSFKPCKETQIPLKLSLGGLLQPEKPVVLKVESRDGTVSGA

[13] = Elimination half life in C57BL/6 mouse at 10 mg/kg, po administered as a single dose; assay type: ADME, organism-based; settings: in vivo, read-out: beta t1/2 (converted)
[14] = Brain to plasma permeability coefficient, Kp of the compound in C57BL/6 mouse after 0.5 hrs; assay type: ADME
[15] = in vitro; settings: mouse
Description: Metabolic stability in mouse assessed as parent compound remaining after 30 mins

[16] = test system: Mus musculus; assay: Immunosuppressive activity in MOG (35 to 55 residues)/pertussis toxin-induced experimental autoimmune encephalomyelitis C57BL/6 mouse model assessed as reduction in development of clinical symptoms at 50 mg/kg, po administered once a day starting from day 3 post immunization upto 17 days; assay type: functional, organism-based
[17] = in vitro; settings: human
Description: Metabolic stability in human assessed as parent compound remaining after 30 mins

[18] = Oral bioavailability in C57BL/6 mouse at 10 mg/kg administered as a single dose; assay type: ADME, organism-based; settings: in vivo

SMILES | EC50 [1] | also measured
COC1c2cc(C(F)(F)F)ccc2NC12CCN(CC1CCOCC1)CC2 (stereo unspecified) | 5.7 nM | –
FC(F)(F)c1ccc2c(c1)CC1(CCN(CC3CCOCC3)CC1)N2 | 240 nM | –
CC(C)CN1CCC2(CC1)Nc1ccc(C(C)C)cc1C2=O | 330 nM | –
O=C1c2ccccc2NC12CCN(CC1CCOCC1)CC2 | 550 nM | –
O=C1c2cc(C(F)(F)F)ccc2NC12CCN(CC1CCOCC1)CC2 | 3.2 nM | inhibition at 10 µM [2]: 70%; IC50 [3]: > 18000 nM; clearance [4]: 79.2 mL/min/kg; Emax [5]: 240%; Cmax [6]: 308 ng/mL; inhibition at 10 µM [7]: 94%; logD [8]: 2.8; Vd [9]: 31.5 L/kg; AUC(0-t) [10]: 1780 ng·h/mL; Kp at 4 h [11]: 50.9; IC50 [12]: > 18000 nM; half-life [13]: 6.4 h; Kp at 0.5 h [14]: 25.5; remaining at 0.5 h [15]: 68%; Activity [16]: Active; remaining at 0.5 h [17]: 35%; bioavailability [18]: 116%
CC(C)c1ccc2c(c1)C(=O)C1(CCN(CCc3ccccc3)CC1)N2 | 540 nM | –
CN1c2ccc(C(F)(F)F)cc2C(=O)C12CCN(CC1CCOCC1)CC2 | 9.3 nM | –
O=C1c2cc(C(F)(F)F)ccc2CC12CCN(CC1CCOCC1)CC2 | 110 nM | –
CC(C)c1ccc2c(c1)C(=O)C1(CCN(CC3CCOCC3)CC1)N2 | 4.6 nM | –
CCCN1CCC2(CC1)Nc1ccc(C(C)C)cc1C2=O | 550 nM | –
CC(C)c1ccc2c(c1)C(=O)C1(CCN(C(=O)C3CC3)CC1)N2 | > 10000 nM | –
O=C1c2cc(O)ccc2NC12CCN(CC1CCOCC1)CC2 | > 10000 nM | –
O=C1c2cc(C(F)(F)F)ccc2OC12CCN(CC1CCOCC1)CC2 | 480 nM | –
CC(C)c1ccc2c(c1)C(=O)C1(CCN(CC3CCC3)CC1)N2 | 16 nM | –
CC(C)(C)c1ccc2c(c1)C(=O)C1(CCN(CC3CCOCC3)CC1)N2 | 9.9 nM | –
CC(C)c1ccc2c(c1)C(=O)C1(CCN(Cc3ccccc3)CC1)N2 | 330 nM | –
CC(C)c1ccc2c(c1)C(=O)C1(CCN(CC3CCCCC3)CC1)N2 | 37 nM | –
O=C1c2cc(Cl)ccc2NC12CCN(CC1CCOCC1)CC2 | 320 nM | –
CN1c2ccc(C(F)(F)F)cc2CC12CCN(CC1CCOCC1)CC2 | 7100 nM | –
CC(C)Oc1ccc2c(c1)C(=O)C1(CCN(CC3CCOCC3)CC1)N2 | 59 nM | –
OC1c2cc(C(F)(F)F)ccc2NC12CCN(CC1CCOCC1)CC2 (stereo unspecified) | 520 nM | –
CC(C)c1ccc2c(c1)C(=O)C1(CCN(CC3CCCC3)CC1)N2 | 25 nM | –
CC(C)c1ccc2c(c1)C(=O)C1(CCN(S(=O)(=O)C3CC3)CC1)N2 | > 10000 nM | –
COc1ccc2c(c1)C(=O)C1(CCN(CC3CCOCC3)CC1)N2 | 970 nM | –
